This experiment concerns MV-4-11 cells. As to the kind of experiment: Gene expression microarray analysis (Affymetrix PrimeView) and GSEA. Details: RFU PODN (11730768_x_at) / Fold change /veh PODN (11730768_x_at) / RFU LINC00158 (11744669_a_at) / Fold change /veh LINC00158 (11744669_a_at) / RFU DUSP10 (11751237_a_at) / Fold change /veh DUSP10 (11751237_a_at) / RFU ID3 (11757404_x_at) / Fold change /veh ID3 (11757404_x_at) / RFU PLEKHG5 (11737974_s_at) / Fold change /veh PLEKHG5 (11737974_s_at) / RFU LRRC4B (11730491_at) / Fold change /veh LRRC4B (11730491_at) / RFU GIMAP4 (11747438_a_at) / Fold change /veh GIMAP4 (11747438_a_at) / RFU KRT8 (11758183_x_at) / Fold change /veh KRT8 (11758183_x_at) / RFU CNN1 (11734310_a_at) / Fold change /veh CNN1 (11734310_a_at) / RFU VPS37D (11726825_at) / Fold change /veh VPS37D (11726825_at) / RFU C10orf10 (11716522_x_at) / Fold change /veh C10orf10 (11716522_x_at) / RFU KIR2DL2 /// KIR2DL4 /// KIR2DL5A /// KIR2DL5B /// KIR2DS1 /// KIR2DS2 /// KIR2DS3 /// KIR2DS4 /// KIR3DL3 /// KIR3DL3 /// KIR3DS1 (11738374_at) / Fold change /veh KIR2DL2 /// KIR2DL4 /// KIR2DL5A /// KIR2DL5B /// KIR2DS1 /// KIR2DS2 /// KIR2DS3 /// KIR2DS4 /// KIR3DL3 /// KIR3DL3 /// KIR3DS1 (11738374_at) / RFU C1QL1 (11718748_at) / Fold change /veh C1QL1 (11718748_at) / RFU TMPRSS4 (11747572_a_at) / Fold change /veh TMPRSS4 (11747572_a_at) / RFU HAMP (11756126_x_at) / Fold change /veh HAMP (11756126_x_at) / RFU RNFT2 (11725882_a_at) / Fold change /veh RNFT2 (11725882_a_at) / RFU NR4A2 (11747474_a_at) / Fold change /veh NR4A2 (11747474_a_at) / RFU ABCC12 (11746883_a_at) / Fold change /veh ABCC12 (11746883_a_at) / RFU TMEM136 (11760407_x_at) / Fold change /veh TMEM136 (11760407_x_at) / RFU CLDN22 /// WWC2 (11732394_at) / Fold change /veh CLDN22 /// WWC2 (11732394_at) / RFU HLA-DPB1 (11760878_x_at) / Fold change /veh HLA-DPB1 (11760878_x_at) / RFU SPINT1 (11716480_a_at) / Fold change /veh SPINT1 (11716480_a_at) / RFU GAP43 (11754022_s_at) / Fold change /veh GAP43 (11754022_s_at) / RFU A4GNT (11735810_at) / Fold change /veh A4GNT (11735810_at) / RFU PRB3 (11715151_x_at) / Fold change /veh PRB3 (11715151_x_at) / RFU TUBB4B (11761932_at) / Fold change /veh TUBB4B (11761932_at) / RFU CAPN14 (11732068_a_at) / Fold change /veh CAPN14 (11732068_a_at) / RFU TMCC2 (11721928_a_at) / Fold change /veh TMCC2 (11721928_a_at) / RFU IRGQ (11745062_a_at) / Fold change /veh IRGQ (11745062_a_at) / RFU FAM174B (11720279_a_at) / Fold change /veh FAM174B (11720279_a_at) / RFU TMPRSS4 (11748680_a_at) / Fold change /veh TMPRSS4 (11748680_a_at) / RFU FAM212B (11763350_a_at) / Fold change /veh FAM212B (11763350_a_at) / RFU PLEKHG5 (11743358_a_at) / Fold change /veh PLEKHG5 (11743358_a_at) / RFU ZSCAN30 (11745921_a_at) / Fold change /veh ZSCAN30 (11745921_a_at) / RFU CMKLR1 (11741424_a_at) / Fold change /veh CMKLR1 (11741424_a_at) / RFU LOC101060620 /// MAPK8IP1 (11723275_at) / Fold change /veh LOC101060620 /// MAPK8IP1 (11723275_at) / RFU SPTSSB (11747773_x_at) / Fold change /veh SPTSSB (11747773_x_at) / RFU PRSS12 (11739890_at) / Fold change /veh PRSS12 (11739890_at) / RFU BIN1 (11741810_x_at) / Fold change /veh BIN1 (11741810_x_at) / RFU WNT11 (11732464_a_at) / Fold change /veh WNT11 (11732464_a_at) / RFU C10orf10 (11716521_a_at) / Fold change /veh C10orf10 (11716521_a_at) / RFU C5orf56 (11738089_at) / Fold change /veh C5orf56 (11738089_at) / RFU CYB561 (11721691_x_at) / Fold change /veh CYB561 (11721691_x_at) / RFU ANKRD19P (11752326_a_at) / Fold change /veh ANKRD19P (11752326_a_at) / RFU OR2T12 /// OR2T33 /// OR2T8 (11738714_s_at) / Fold change /veh OR2T12 /// OR2T33 /// OR2T8 (11738714_s_at) / RFU VCAN (11748164_a_at) / Fold change /veh VCAN (11748164_a_at) / RFU JSRP1 (11732532_at) / Fold change /veh JSRP1 (11732532_at) / RFU KRTAP10-11 (11738290_x_at) / Fold change /veh KRTAP10-11 (11738290_x_at) / RFU MYO3A (11730013_a_at) / Fold change /veh MYO3A (11730013_a_at) / RFU EBF3 (11725865_a_at) / Fold change /veh EBF3 (11725865_a_at) / RFU CAMK2N1 (11719241_x_at) / Fold change /veh CAMK2N1 (11719241_x_at) / RFU C5orf56 (11738088_a_at) / Fold change /veh C5orf56 (11738088_a_at) / RFU OLFML3 (11715873_a_at) / Fold change /veh OLFML3 (11715873_a_at) / RFU LOC100653217 /// NTM (11731650_a_at) / Fold change /veh LOC100653217 /// NTM (11731650_a_at) / RFU MAPK11 (11762145_a_at) / Fold change /veh MAPK11 (11762145_a_at) / RFU FIZ1 (11724087_x_at) / Fold change /veh FIZ1 (11724087_x_at) / RFU OASL (11726364_x_at) / Fold change /veh OASL (11726364_x_at) / RFU SOX15 (11748057_x_at) / Fold change /veh SOX15 (11748057_x_at) / RFU CD79A (11719716_a_at) / Fold change /veh CD79A (11719716_a_at) / RFU HIST1H1D (11736915_at) / Fold change /veh HIST1H1D (11736915_at) / RFU CASKIN2 (11723855_a_at) / Fold change /veh CASKIN2 (11723855_a_at) / RFU LOC730098 (11760151_x_at) / Fold change /veh LOC730098 (11760151_x_at) / RFU OR4N2 (11742367_at) / Fold change /veh OR4N2 (11742367_at) / RFU PRRT2 (11749266_a_at) / Fold change /veh PRRT2 (11749266_a_at) / RFU SNX32 (11753110_a_at) / Fold change /veh SNX32 (11753110_a_at) / RFU CDHR5 (11726645_a_at) / Fold change /veh CDHR5 (11726645_a_at) / RFU RCAN1 (11760418_a_at) / Fold change /veh RCAN1 (11760418_a_at) / RFU FAM167A (11723789_a_at) / Fold change /veh FAM167A (11723789_a_at) / RFU FAM26E (11764081_at) / Fold change /veh FAM26E (11764081_at) / RFU ISYNA1 (11749810_s_at) / Fold change /veh ISYNA1 (11749810_s_at) / RFU ACY1 (11761880_at) / Fold change /veh ACY1 (11761880_at) / RFU 11764098_at / Fold change /veh 11764098_at / RFU SAMD14 (11745864_x_at) / Fold change /veh SAMD14 (11745864_x_at) / RFU NPB (11741838_a_at) / Fold change /veh NPB (11741838_a_at) / RFU TMPRSS6 (11731388_a_at) / Fold change /veh TMPRSS6 (11731388_a_at) / RFU KRTAP10-2 (11738614_at) / Fold change /veh KRTAP10-2 (11738614_at) / RFU ARHGAP8 /// PRR5-ARHGAP8 (11727945_x_at) / Fold change /veh ARHGAP8 /// PRR5-ARHGAP8 (11727945_x_at) / RFU KRTAP5-7 /// NADSYN1 (11734609_at) / Fold change /veh KRTAP5-7 /// NADSYN1 (11734609_at) / RFU RASL12 (11751679_a_at) / Fold change /veh RASL12 (11751679_a_at) / RFU CDKN2B (11736163_a_at) / Fold change /veh CDKN2B (11736163_a_at) / RFU PRF1 (11729649_at) / Fold change /veh PRF1 (11729649_at) / RFU, ZNF638 /// ZNF638-IT1 / Fold change vs veh, ZNF638 /// ZNF638-IT1 / RFU, PANK3 / Fold change vs veh, PANK3 / RFU, SH3YL1 / Fold change vs veh, SH3YL1 / RFU, ZEB2 / Fold change vs veh, ZEB2 / RFU, NRIP1 / Fold change vs veh, NRIP1 / RFU, PTTG1IP / Fold change vs veh, PTTG1IP / RFU, CAPN2 / Fold change vs veh, CAPN2 / RFU, MED14 / Fold change vs veh, MED14 / RFU, SNORA58 / Fold change vs veh, SNORA58 / RFU, C1orf63 / Fold change vs veh, C1orf63 / RFU, LRRFIP1 / Fold change vs veh, LRRFIP1 / RFU, NDUFAF7 / Fold change vs veh, NDUFAF7 / RFU, SLC12A2 / Fold change vs veh, SLC12A2 / RFU, IBTK / Fold change vs veh, IBTK / RFU, ESF1 / Fold change vs veh, ESF1 / Fold change vs veh, TMEM50B / RFU, TAOK1 / Fold change vs veh, TAOK1 / RFU, ACBD3 / Fold change vs veh, ACBD3 / RFU, TMA16 / Fold change vs veh, TMA16 / RFU, RWDD3 / Fold change vs veh, RWDD3 / RFU, BCAT1 / Fold change vs veh, BCAT1 / RFU, EDEM3 / Fold change vs veh, EDEM3 / RFU, TMEM33 / Fold change vs veh, TMEM33 / RFU, WDR75 / Fold change vs veh, WDR75 / RFU, AHCTF1 / Fold change vs veh, AHCTF1 / RFU, TFRC / Fold change vs veh, TFRC / RFU, ZDHHC17 / Fold change vs veh, ZDHHC17 / RFU, NOM1 / Fold change vs veh, NOM1 / RFU, ARL8B / Fold change vs veh, ARL8B / RFU, ZBTB11 / Fold change vs veh, ZBTB11 / RFU, TAMM41 / Fold change vs veh, TAMM41 / RFU, KIAA1704 /// LOC100996395 / Fold change vs veh, KIAA1704 /// LOC100996395 / RFU, ING1 / Fold change vs veh, ING1 / RFU, TRMT61B / Fold change vs veh, TRMT61B / RFU, FUBP3 / Fold change vs veh, FUBP3 / RFU, TP53 / Fold change vs veh, TP53 / RFU, TNKS2 / Fold change vs veh, TNKS2 / RFU, ZFP14 / Fold change vs veh, ZFP14 / RFU, ACTR2 / Fold change vs veh, ACTR2 / RFU, PPP3R1 / Fold change vs veh, PPP3R1 / RFU, PIK3R1 / Fold change vs veh, PIK3R1 / RFU, HNRNPA1 / Fold change vs veh, HNRNPA1 / RFU, RNF170 / Fold change vs veh, RNF170 / RFU, ZNF28 / Fold change vs veh, ZNF28 / RFU, RNGTT / Fold change vs veh, RNGTT / RFU, OGT / Fold change vs veh, OGT / RFU, BRD1 / Fold change vs veh, BRD1 / RFU, MARS / Fold change vs veh, MARS / RFU, ZNF655 / Fold change vs veh, ZNF655 / RFU, FAHD1 / Fold change vs veh, FAHD1 / RFU, BDP1 / Fold change vs veh, BDP1 / RFU, LRRCC1 / Fold change vs veh, LRRCC1 / RFU, ARID1A / Fold change vs veh, ARID1A / RFU, ZNF146 / Fold change vs veh, ZNF146 / RFU, ZNF330 / Fold change vs veh, ZNF330 / RFU, GPN3 / Fold change vs veh, GPN3 / RFU, C9orf123 / Fold change vs veh, C9orf123 / RFU, N4BP2L2 / Fold change vs veh, N4BP2L2 / RFU, ARFIP1 / Fold change vs veh, ARFIP1 / RFU, FAM179B / Fold change vs veh, FAM179B / RFU, BCL10 / Fold change vs veh, BCL10 / RFU, UHRF1BP1L / Fold change vs veh, UHRF1BP1L / RFU, BET1 / Fold change vs veh, BET1 / RFU, CNOT2 / Fold change vs veh, CNOT2 / RFU, ZNF268 / Fold change vs veh, ZNF268 / Fold change vs veh, ZNF507 / RFU, DGCR2 / Fold change vs veh, DGCR2 / RFU, WDSUB1 / Fold change vs veh, WDSUB1 / Fold change vs veh, HSP90B1 /// MIR3652 / RFU, ADSS / Fold change vs veh, ADSS / RFU, GK / Fold change vs veh, GK / RFU, ZNF148 / Fold change vs veh, ZNF148 / RFU, TAF9 / Fold change vs veh, TAF9 / RFU, SLC1A5 / Fold change vs veh, SLC1A5 / RFU, SLMO2 / Fold change vs veh, SLMO2 / RFU, ABCC4 / Fold change vs veh, ABCC4 / RFU, LOC101060439 /// RAP1B / Fold change vs veh, LOC101060439 /// RAP1B / RFU, RFX7 / Fold change vs veh, RFX7 / RFU, GTPBP10 / Fold change vs veh, GTPBP10 / RFU, CNEP1R1 / Fold change vs veh, CNEP1R1 / RFU, BIVM-ERCC5 /// ERCC5 / Fold change vs veh, BIVM-ERCC5 /// ERCC5 / RFU, ILF3 / Fold change vs veh, ILF3 / RFU 11762660_at / Fold change /veh 11762660_at / RFU VCAN (11757783_s_at) / Fold change /veh VCAN (11757783_s_at) / RFU DDX43 (11728927_at) / Fold change /veh DDX43 (11728927_at) / RFU KRT8 (11758188_x_at) / Fold change /veh KRT8 (11758188_x_at) / RFU NKD1 (11759106_at) / Fold change /veh NKD1 (11759106_at) / RFU SRD5A1 (11742802_a_at) / Fold change /veh SRD5A1 (11742802_a_at) / RFU TPSAB1 /// TPSB2 (11721975_s_at) / Fold change /veh TPSAB1 /// TPSB2 (11721975_s_at) / RFU GSTM3 (11746129_a_at) / Fold change /veh GSTM3 (11746129_a_at) / RFU IL23R (11737362_x_at) / Fold change /veh IL23R (11737362_x_at) / RFU TMEM51 (11727254_a_at) / Fold change /veh TMEM51 (11727254_a_at) / RFU PIWIL2 (11732686_x_at) / Fold change /veh PIWIL2 (11732686_x_at) / RFU ORM1 (11744905_x_at) / Fold change /veh ORM1 (11744905_x_at) / RFU CCDC152 (11743942_at) / Fold change /veh CCDC152 (11743942_at) / RFU ECM1 (11717891_a_at) / Fold change /veh ECM1 (11717891_a_at) / RFU IL23R (11748794_a_at) / Fold change /veh IL23R (11748794_a_at) / RFU TNFAIP8L3 (11732012_x_at) / Fold change /veh TNFAIP8L3 (11732012_x_at) / RFU MBOAT4 (11741988_at) / Fold change /veh MBOAT4 (11741988_at) / RFU 11764193_at / Fold change /veh 11764193_at / RFU TMEM53 (11763286_at) / Fold change /veh TMEM53 (11763286_at) / RFU MAGEB2 (11727129_at) / Fold change /veh MAGEB2 (11727129_at) / RFU TMEM200A (11744735_a_at) / Fold change /veh TMEM200A (11744735_a_at) / RFU CCDC152 (11751479_a_at) / Fold change /veh CCDC152 (11751479_a_at) / RFU FAM211A (11726209_a_at) / Fold change /veh FAM211A (11726209_a_at) / RFU RGS16 (11746705_a_at) / Fold change /veh RGS16 (11746705_a_at) / RFU VCAN (11755009_s_at) / Fold change /veh VCAN (11755009_s_at) / RFU RHOB (11743442_s_at) / Fold change /veh RHOB (11743442_s_at) / RFU RGS16 (11720943_a_at) / Fold change /veh RGS16 (11720943_a_at) / RFU RGS16 (11720944_at) / Fold change /veh RGS16 (11720944_at) / RFU, VPS4B / Fold change vs veh, VPS4B / RFU, CREB1 / Fold change vs veh, CREB1 / RFU, DNAJC13 / Fold change vs veh, DNAJC13 / RFU, GNAQ / Fold change vs veh, GNAQ / RFU, CDK5R1 / Fold change vs veh, CDK5R1 / RFU, ZRANB3 / Fold change vs veh, ZRANB3 / RFU, CUL4A / Fold change vs veh, CUL4A / RFU, CCNY / Fold change vs veh, CCNY / RFU, UFL1 / Fold change vs veh, UFL1 / RFU, COG3 / Fold change vs veh, COG3 / RFU, DIAPH2 / Fold change vs veh, DIAPH2 / RFU, SKA2 / Fold change vs veh, SKA2 / RFU, AFF3 / Fold change vs veh, AFF3 / RFU, LMF1 / Fold change vs veh, LMF1 / RFU, IPO11 / Fold change vs veh, IPO11 / RFU, DFFB / Fold change vs veh, DFFB / RFU, FOXP1 / Fold change vs veh, FOXP1 / RFU, CARD8 / Fold change vs veh, CARD8 / RFU, STRN3 / Fold change vs veh, STRN3 / RFU, ADK / Fold change vs veh, ADK / RFU, RASSF2 / Fold change vs veh, RASSF2 / RFU, WIPF1 / Fold change vs veh, WIPF1 / RFU, LARP1B / Fold change vs veh, LARP1B / RFU, RASA1 / Fold change vs veh, RASA1 / RFU, RB1 / Fold change vs veh, RB1 / RFU, PPFIA1 / Fold change vs veh, PPFIA1 / RFU, MAT2A / Fold change vs veh, MAT2A / RFU, CCT5 / Fold change vs veh, CCT5 / RFU, WDR92 / Fold change vs veh, WDR92 / RFU, CUX1 / Fold change vs veh, CUX1 / RFU, TTC7A / Fold change vs veh, TTC7A / RFU, TMEM135 / Fold change vs veh, TMEM135 / RFU, DEPTOR / Fold change vs veh, DEPTOR / RFU, CPM / Fold change vs veh, CPM / RFU, DNAJB6 / Fold change vs veh, DNAJB6 / RFU, CACNA2D3 / Fold change vs veh, CACNA2D3 / RFU, DTX4 / Fold change vs veh, DTX4 / RFU, TFCP2 / Fold change vs veh, TFCP2 / RFU, GMCL1 /// GMCL1P1 / Fold change vs veh, GMCL1 /// GMCL1P1 / RFU, AEBP2 / Fold change vs veh, AEBP2 / RFU, SNHG1 /// SNORD22 /// SNORD25 /// SNORD26 /// SNORD27 /// SNORD28 /// SNORD29 /// SNORD31 / Fold change vs veh, SNHG1 /// SNORD22 /// SNORD25 /// SNORD26 /// SNORD27 /// SNORD28 /// SNORD29 /// SNORD31 / Fold change (Aza/veh), C12orf56 (ProbeSet 11735607_a_at) / Fold change (ACY-1035/veh), C12orf56 (ProbeSet 11735607_a_at) / Fold change (Aza/veh), FGFR1OP (ProbeSet 11751329_s_at) / Fold change (ACY-1035/veh), FGFR1OP (ProbeSet 11751329_s_at) / Fold change (Aza/veh), VPS36 (ProbeSet 11739960_a_at) / Fold change (ACY-1035/veh), VPS36 (ProbeSet 11739960_a_at) / RFU SYPL1 (11715823_x_at) / Fold change /veh SYPL1 (11715823_x_at) / RFU IGFBP7 (11715501_s_at) / Fold change /veh IGFBP7 (11715501_s_at) / RFU REEP3 (11722064_at) / Fold change /veh REEP3 (11722064_at) / RFU IGLL1 (11728026_x_at) / Fold change /veh IGLL1 (11728026_x_at): dose or concentration left out as unconfirmed. As to conditions: MV-4-11 cells, 48 hours. Format: cell-based, human.

Take `Nc1ccc(-c2cccs2)cc1NC(=O)c1ccc2c(c1)cc(C1CC1)n2CCN1CCOCC1` [ACY-1035]: the “RFU VPS37D (11726825_at)” value came out at 17.46 RFU.

The values above are taken from paper PMC5218480 (PLoS ONE, 2017).
